The assay has as its target AMPA receptor. The assay is described as follows: displacement of [^3 H]-AMPA from its binding site on rat forebrain membranes. The following applies: 5 nmolar [^3 H]AMPA, 100 mmolar KSCN, 4° C., 1 hr. The protocol:
A representative compound of this invention was evaluated in a standard pharmacological test procedure to determine its ability to displace [^3 H]-α-amino-3-hydroxy-5-methylisoxazole-4-propionic acid (AMPA) from its binding site on rat forebrain membranes as described in a modified assay by D. E. Murphy, E. W. Snowhill and M. Williams (Characterization of quisqualate recognition sites in rat brain tissue using DL-[^3 H]α-amino-3-hydroxy-5-methylisoxazole-4-propionic acid (AMPA) and a filtration assay, Neurochemical Research, Vol. 12, No.9, 1987, pp. 775-782). Briefly, rats were decapitated and their forebrains (whole brain minus brain stem and cerebella) were homogenized in a volume (ml) of ice cold 0.32M sucrose equivalent to 15 times the forebrain weight (gram). The homogenate was centrifuged at 1,000 g for 10 minutes and the supernatant was recentrifuged at 20,000 g for 20 min. The pellet was resuspended in ice-cold distilled water and centrifuged at 8,000 g for 20 min. The supernatant and buffy coat were centrifuged at 48,000 g for 10 min. The pellet was then resuspended in the original volume of ice-cold 50 mmolar TRIS HCl (pH 7.4) and centrifuged at 48,000 g for 10 min. The pellet was resuspended in 50 mmolar TRIS HCl containing 0.04% Triton X-100 and the homogenate was incubated at 37° C. for 30 min. The homogenate was then centrifuged at 48,000 g for 10 min. […]

As a reminder, the IC50 is the concentration needed to halve the response being measured. Read a low IC50 as higher potency. Regarding `O=c1[nH]c2cc3no[n+]([O-])c3cc2[nH]c1=O` [Example 1, 1-Oxy-5H,8H-2-oxa-1,3,5,8-tetraaza-cyclopenta[b]naphthalene-6,7-dione], the IC50 turned out to be 7.6 µM. This lies in the single-digit micromolar range.
